# Test results from US20170119907A1, “Targeted Therapeutics” (MEDIVATION TECHNOLOGIES, INC., priority 2014, published 2017).
# Tests used:
# [1] = system: human MSCs; experiment: Viability and proliferation of human MSCs in the presence of compound (Example B2); assay type: cell-based; settings: concentrations of 20 μM or below
# [2] = system: human MSCs; experiment: Human MSC viability, trypan blue staining; assay type: cell-based; settings: 30 min, concentrations 20 μM or lower, FIG. 3B
# Procedure: (§1) Cell viability was measured by using trypan blue to stain dead cells. Cells (2×10^5) were incubated with various concentrations of Compound 4 for 30 min, and viable cells were counted and compared to the number of viable cells in an untreated sample. Values for treated cells were normalized to untreated cells.
# [3] = system: ARH-77 cells; experiment: Binding of compounds to ARH-77 cells (Example B1a); assay type: cell-based; settings: photomicrographs, FIG. 2A
# [4] = system: human MSCs; experiment: Human MSC proliferation, CELLTITER GLO assay (ATP levels); assay type: cell-based; settings: 24 h, various concentrations, compared with untreated cells; FIG. 3A
# Procedure: This example reports the effects of 24 hour treatment with Compound 4 on viability and proliferation of human MSCs.
# Cell proliferation was measured using the CELLTITER GLO® assay (Promega), which measures ATP levels. Cells (5×10^5) were incubated with various concentrations of Compound 4 for 24 h. Proliferation was compared to that of untreated cells. Proliferation values for 24 h were normalized to time=0 and compared with values for untreated cells.
# [5] = system: human MSCs; experiment: Binding to human MSCs (visual inspection of staining); assay type: cell-based; settings: 5 μM or 10 μM, 30 min; FIG. 4A
# Procedure: Human MSCs were incubated without Compound 4 or with Compound 4 (5 μM or 10 μM) for 30 min and then washed twice with 1 mL PBS. Samples were visually inspected to determine staining
# [6] = system: human MSCs; experiment: Binding to and staining of human MSCs; assay type: cell-based; settings: photomicrographs, FIG. 4A
# [7] = system: ARH-77 cells; experiment: Binding to ARH-77 cells (fluorescence staining); assay type: cell-based; settings: 10 μM, 30 min; 530 nm/600 nm filter set; FIG. 2A
# Procedure: ARH-77 cells (an EBV-transformed B lymphoblastoid cell line established from cells of a patient with plasma cell leukemia) were incubated as indicated with PBS or 10 μM Compound 4 for 30 min. Cells were washed twice with 1 mL PBS, and staining was detected using a 530 nm/600 nm filter set on a Molecular Imaging Gel Logic system.
# [8] = system: Raji cells; experiment: Raji cell viability, trypan blue staining; assay type: cell-based; settings: times and concentrations tested (at or below 20 μM), FIG. 3C
# Procedure: as §1
# In a similar fashion to Example B2a, Compound 20 was assessed for its effect on viability of Raji cells as determined by trypan blue staining, as described in Example B2a.
# [9] = system: articular cartilage degeneration (MIA model); experiment: Monosodium iodoacetate (MIA) model of articular cartilage degeneration, compound-incubated hMSCs; assay type: in vivo, Sprague Dawley rats; settings: rat MIA 3 mg intra-articular; 4×10^5 hMSCs incubated in 10 μM compound injected day 7; evaluated day 28; FIG. 7
# Procedure: 6 to 8 week old Sprague Dawley rats were anesthetized with 3% sevofluorane and injected in both the right and left knee intra-articularly with MIA (monosodium iodoacetate, Sigma Cat No I2512) at a dose of 3 mg in a volume of 50 pt. MIA was dissolved in sterile saline (0.9%). hMSCs (Lonza, Cat No PT-2501) were cultured in complete MSCCM™ mesenchymal stem cell culture medium (Lonza, Cat No PT-3238).
# Seven days after the injection of MIA, 2-10 million hMSCs were collected and incubated for 20 min in 500 μL of 10 μM Compound 20 in PBS or in PBS alone (untreated). Cells were washed with PBS and counted.
# Rats were again anesthetized with 3% sevofluorane. 4×10^5 hMSCs incubated in PBS or in Compound 20 were injected intraarticularly through the patellar ligament. Untreated hMSC were injected into the left knee joint, and Compound 20-stained hMSCs were injected into the right knee joint.
# Twenty eight days after the injection of MIA, rats were euthanized, and femoral condyles were extracted for macroscopic evaluation.
Compound,proliferation of human MSCs ([1]; FIG. 3A),viability of human MSCs relative to untreated human MSCs ([1]; FIG. 3B),Effect on viability of human MSCs [2],binding to ARH-77 cells [3],Effect on human MSC proliferation [4],Binding to human MSCs (visual staining) [5],binding to and staining of human MSCs [6],binding to ARH-77 cells [7],Toxic effects on Raji cells (viability) [8],Macroscopic evaluation of femoral condyle cartilage [9]
"Cc1cc2nc3cc(C)c(NCCCCCCCCNc4cc5c(cc4C)nc4cc(C)c(N)cc4[n+]5-c4ccccc4)cc3[n+](-c3ccccc3)c2cc1N.[Cl-].[Cl-] [Compound 4, 7,7′-(octane-1,8-diylbis(azanediyl))bis(3-amino-2,8-dimethyl-5-phenylphenazin-5-ium) chloride]",do not affect,do not affect,did not affect the viability,binding,does not affect human MSC proliferation,binds human MSCs,binds to and stains,binds to ARH-77 cells,,
"Cc1cc2nc3cc(C)c(NCCCCCCNC(=O)c4ccc(-c5ccc(C(=O)NCCCCCCNc6cc7c(cc6C)nc6cc(C)c(N)cc6[n+]7-c6ccccc6)cc5)cc4)cc3[n+](-c3ccccc3)c2cc1N.[Cl-].[Cl-] [Compound 20, (3-amino-7-{[6-({4-[4-({6-[(7-amino-5-chloranuide-2,8-dimethyl-5-phenyl-5λ^6,10-phenazin-5-ylium-3-yl)amino]hexyl}carbamoyl)phenyl]phenyl}formamido)hexyl]amino}-2,8-dimethyl-5-phenyl-5λ^6,10-phenazin-5-ylium-5-e)chloranuide]",,,,,,,,,did not have toxic effects,an improvement in the cartilage and surrounding bone area
